Measured values taken from ChEMBL document CHEMBL5360622, “Leucettinibs, a Class of DYRK/CLK Kinase Inhibitors Inspired by the Marine Sponge Natural Product Leucettamine B” (J Med Chem, 2023).

How the values were obtained:
[1] = biological target: Dual specificity protein kinase CLK4 (Homo sapiens, UniProt Q9HAZ1)
[2] = biological target: T1, Dual specificity tyrosine-phosphorylation-regulated kinase 3 (Homo sapiens, UniProt O43781)
T1 sequence (O43781 whole entry): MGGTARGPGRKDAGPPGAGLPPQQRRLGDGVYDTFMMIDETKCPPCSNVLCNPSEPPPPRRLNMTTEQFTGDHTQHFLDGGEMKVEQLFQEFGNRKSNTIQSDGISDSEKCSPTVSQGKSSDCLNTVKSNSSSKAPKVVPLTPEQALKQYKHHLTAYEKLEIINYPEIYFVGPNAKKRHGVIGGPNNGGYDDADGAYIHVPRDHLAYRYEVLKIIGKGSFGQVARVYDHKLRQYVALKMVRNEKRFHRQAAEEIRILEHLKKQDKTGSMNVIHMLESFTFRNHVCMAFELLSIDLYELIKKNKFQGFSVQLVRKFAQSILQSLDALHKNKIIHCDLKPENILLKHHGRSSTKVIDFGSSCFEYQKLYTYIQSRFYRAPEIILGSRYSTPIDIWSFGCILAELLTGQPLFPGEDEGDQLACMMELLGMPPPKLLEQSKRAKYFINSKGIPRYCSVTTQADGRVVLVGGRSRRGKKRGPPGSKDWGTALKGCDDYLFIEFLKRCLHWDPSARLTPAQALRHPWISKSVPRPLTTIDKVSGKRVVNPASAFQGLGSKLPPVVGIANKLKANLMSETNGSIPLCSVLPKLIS

[3] = biological target: T2, Glycogen synthase kinase-3 beta (Homo sapiens, UniProt P49841); type: cell-based, Sf9
Target sequence in this assay (P49841 whole entry): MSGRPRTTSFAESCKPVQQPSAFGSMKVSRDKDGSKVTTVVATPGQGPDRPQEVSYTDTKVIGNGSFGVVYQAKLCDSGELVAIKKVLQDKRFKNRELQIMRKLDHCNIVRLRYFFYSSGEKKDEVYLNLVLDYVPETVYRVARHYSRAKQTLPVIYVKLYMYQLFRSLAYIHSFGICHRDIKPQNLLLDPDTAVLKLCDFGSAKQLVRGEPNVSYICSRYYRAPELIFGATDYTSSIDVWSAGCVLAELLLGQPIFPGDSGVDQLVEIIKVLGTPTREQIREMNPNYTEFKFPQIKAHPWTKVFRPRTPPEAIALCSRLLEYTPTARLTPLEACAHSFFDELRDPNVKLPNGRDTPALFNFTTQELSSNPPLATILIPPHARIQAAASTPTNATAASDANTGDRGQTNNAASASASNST

[4] = biological target: Dual specificity protein kinase CLK1 (Homo sapiens, UniProt P49759); conditions: dose 10.0 µM
[5] = biological target: T2, Glycogen synthase kinase-3 beta; conditions: dose 10.0 µM
Target sequence in this assay (P49841 whole entry, looked up): as the sequence (P49841 whole entry) above

Sequence of Dual specificity protein kinase CLK4 (Q9HAZ1 whole entry): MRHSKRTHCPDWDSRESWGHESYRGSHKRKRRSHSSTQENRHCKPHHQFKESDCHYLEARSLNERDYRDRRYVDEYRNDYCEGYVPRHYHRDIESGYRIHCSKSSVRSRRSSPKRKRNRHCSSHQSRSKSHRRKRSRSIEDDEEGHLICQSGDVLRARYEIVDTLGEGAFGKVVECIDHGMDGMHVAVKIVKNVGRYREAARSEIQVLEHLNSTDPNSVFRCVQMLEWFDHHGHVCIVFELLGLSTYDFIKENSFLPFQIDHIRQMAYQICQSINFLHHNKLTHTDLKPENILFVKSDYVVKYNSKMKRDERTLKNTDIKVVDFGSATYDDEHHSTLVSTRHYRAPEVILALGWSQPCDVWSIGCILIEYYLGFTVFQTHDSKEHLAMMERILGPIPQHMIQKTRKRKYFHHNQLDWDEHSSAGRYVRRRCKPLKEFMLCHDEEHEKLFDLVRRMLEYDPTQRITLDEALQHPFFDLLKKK
Sequence of Dual specificity protein kinase CLK1 (P49759 whole entry, looked up): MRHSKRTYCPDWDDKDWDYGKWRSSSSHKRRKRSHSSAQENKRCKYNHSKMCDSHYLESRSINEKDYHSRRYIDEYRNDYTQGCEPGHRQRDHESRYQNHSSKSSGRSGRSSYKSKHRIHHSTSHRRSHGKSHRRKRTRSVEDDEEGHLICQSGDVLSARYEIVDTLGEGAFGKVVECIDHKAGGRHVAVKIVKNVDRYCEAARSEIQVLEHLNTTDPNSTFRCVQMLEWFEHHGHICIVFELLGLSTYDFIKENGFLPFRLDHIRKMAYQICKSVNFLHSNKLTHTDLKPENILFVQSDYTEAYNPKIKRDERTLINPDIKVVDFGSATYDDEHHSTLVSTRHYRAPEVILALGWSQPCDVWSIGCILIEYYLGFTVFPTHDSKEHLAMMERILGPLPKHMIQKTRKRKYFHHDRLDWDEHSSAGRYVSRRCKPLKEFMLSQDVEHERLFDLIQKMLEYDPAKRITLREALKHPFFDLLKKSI

IC50 [1]: 3.5 µM | IC50 [2]: > 10 µM | IC50 [3]: > 10 µM | ΔTm [4]: 2 °C | ΔTm [5]: 0.9 °C
Structure (SMILES): O=C1NC(NC23CC4CC(CC(C4)C2)C3)=N/C1=C\c1ccc2scnc2c1
